pIC50: −log10 of the molar value. Active and inactive are the calls of the source. No cut-off for these calls is given here.
Experiments:
[1] = tested on: Trypanosoma brucei; assay: Antitrypanosomal activity against Trypanosoma brucei 427 after 48 hrs by luciferase assay; format: functional, organism-based; conditions: Trypanosoma brucei, 427, 48 h
[2] = tested on: HL-60; assay: Antiproliferative activity against human HL60 cells; format: functional, cell-based

SMILES: CO[C@@H]1[C@]2(CC[C@H](O[Si](C)(C)C(C)(C)C)[C@@]1(O)/C(C)=C/CC=C(C)C)CO2 (relative stereo)
- pIC50 [1]: 6.55

SMILES: CO[C@@H]1C(=O)CC[C@]2(CO2)[C@]1(O)[C@@]1(C)O[C@@H]1CC=C(C)C (relative stereo)
- Activity [2]: Active

SMILES: O=C(O[C@@H]1CC[C@]2(CO2)[C@@H](O)[C@H]1O)c1ccccc1 (relative stereo)
- pIC50 [1]: 6.14

SMILES: CO[C@@H]1C(=O)CC[C@]2(CO2)[C@]1(O)/C(C)=C/CC=C(C)C (relative stereo)
- pIC50 [1]: 4.38

SMILES: O=C(O[C@H]1CC[C@]2(CO2)[C@H](O)[C@@H]1O)c1ccccc1 (relative stereo)
- pIC50 [1]: 3.49

SMILES: CO[C@@H]1[C@H](O[Si](C)(C)C(C)(C)C)CC[C@]2(CO2)[C@@]1(O)/C(C)=C/CC=C(C)C (relative stereo)
- pIC50 [1]: 6.40

SMILES: CO[C@@H]1[C@@H](OC(=O)c2ccccc2)CC[C@]2(CO2)[C@]1(O)/C(C)=C/CC=C(C)C (relative stereo)
- pIC50 [1]: 5.38

SMILES: CO[C@H]1C(=O)[C@]2(CC[C@@H]1OC(=O)c1ccccc1)CO2 (relative stereo)
- pIC50 [1]: 4.33

From ChEMBL document CHEMBL1157176, “Total syntheses of (+/-)-ovalicin, C4(S *)-isomer, and its C5-analogs and anti-trypanosomal activities” (Bioorg Med Chem, 2008)
